Results on 23 compounds are retold here after patent US9139532B2, “Pyrazolyl guanidine F1F0-atpase inhibitors and therapeutic uses thereof” (Lycera Corporation, priority 2010, dated 2015).

What is called EC50 is the concentration giving half of the maximal effect. Broadly, the IC50 is the midpoint of a concentration-inhibition curve.

The structures appear in SMILES notation. Where two headings read alike, the source gives them in different places. Some results are limits rather than exact numbers.

One assay has as its system Ramos cells. Put plainly: Cytotoxicity in Ramos cells. Type of assay: cell-based. As to conditions: cytotoxicity in Ramos cells, read-out: Ramos Cell EC50.
A further assay concerns the target T1, F1F0-ATPase (Bos taurus, UniProt P13621).
T1 construct: from tissue
Briefly: Inhibition of F1F0-ATPase activity in synthesizing ATP. Type of assay: biochemical. As to conditions: inhibition of ATP synthesis by F1F0-ATPase; read-out: ATP Syn IC50.

In the case of `CCOC[C@H](C)N/C(=N/C(=O)c1ccc(Cl)c(F)c1)Nc1cc(C)[nH]n1` [Compound A-180], the EC50 with Ramos cells was over 10 µM. Further, at F1F0-ATPase, the 50% inhibitory concentration (IC50) was under 10 µM. As to `COc1ccc(C(=O)/N=C(\Nc2cc(-c3ccc(F)cc3)n[nH]2)NC(C)(C)C)c(F)c1` [Compound A-373], the concentration giving a half-maximal response (EC50) with Ramos cells was under 10 µM. The IC50 at F1F0-ATPase was under 10 µM. For the compound `CC(C)NC(=NC(=O)c1ccc(Cl)c(F)c1)Nc1cc(-c2ccc(Cl)cc2)n[nH]1` [Compound A-383], the half-maximal effective concentration (EC50) with Ramos cells (Homo sapiens) is under 10 µM. Also, at F1F0-ATPase, the half-inhibitory concentration (IC50) is under 10 µM. As to `COc1cccc(CNC(=NC(=O)c2ccc(Cl)cc2)Nc2cc(-c3ccc(F)cc3)n[nH]2)c1` [Compound A-400], the concentration giving a half-maximal response (EC50) in the assay with Ramos cells (Homo sapiens) was under 10 µM. Also, the half-maximal inhibitory concentration (IC50) at F1F0-ATPase is under 10 µM. For the compound `COCCOCC(C)(C)N/C(=N/C(=O)c1cccc(C#N)c1)Nc1cc(-c2ccc(F)cc2)n[nH]1` [Compound A-506], the EC50 with Ramos cells was under 10 µM. The IC50 on F1F0-ATPase was under 10 µM. `COCC(C)NC(=NC(=O)c1ccnc(N2CCCC2)c1)Nc1cc(-c2ccc(F)cc2)[nH]n1` (stereo not drawn) [Compound A-484]: the half-maximal effective concentration (EC50) in the assay with Ramos cells (Homo sapiens) is under 10 µM. Besides, on F1F0-ATPase, the half-maximal inhibitory concentration (IC50) is under 10 µM. Consider `O=C(/N=C(\Nc1cc(C(F)(F)F)[nH]n1)NC1CCCC1)c1ccc(Cl)cc1` [Compound A-122], for which the 50% effective concentration (EC50) in the assay with Ramos cells (Homo sapiens) is under 10 µM. For the same compound, the IC50 at F1F0-ATPase is under 10 µM. `COCC(C)NC(=NC(=O)c1ccc(F)c(F)c1)Nc1cc(-c2ccc(Cl)cc2)n[nH]1` (stereo not drawn) [Compound A-376]: the EC50 with Ramos cells (Homo sapiens) is under 10 µM. Moreover, the IC50 at F1F0-ATPase was under 10 µM. Regarding `CCC(C)CNC(=NC(=O)c1cccc(C#N)c1)Nc1cc(-c2ccc(Cl)cc2)n[nH]1` (stereo not drawn) [Compound A-300], in the assay on Ramos cells (Homo sapiens), the concentration for a half-maximal effect (EC50) is under 10 µM. The concentration for half-maximal inhibition (IC50) at F1F0-ATPase is under 10 µM.

Consider `COC(=O)Cc1ccc(N/C(=N/C(=O)c2ccc(F)cc2)Nc2cc(C(F)(F)F)n[nH]2)cc1` [Compound A-173], for which, in the assay on Ramos cells (Homo sapiens), the EC50 is under 10 µM. Moreover, at F1F0-ATPase, the half-maximal inhibitory concentration (IC50) was under 10 µM.

For `O=C(N=C(Nc1cc(F)cc(Cl)c1)Nc1cc(-c2ccc(F)cc2)n[nH]1)c1cccc(C(F)(F)F)c1` [Compound A-450], the EC50 in the assay on Ramos cells (Homo sapiens) is under 10 µM. The 50% inhibitory concentration (IC50) at F1F0-ATPase was under 10 µM. In the case of `Cc1cc(N/C(=N\C(=O)c2ccc(F)c(F)c2)Nc2cc(F)cc(Cl)c2)n[nH]1` [Compound A-45], the EC50 with Ramos cells (Homo sapiens) was over 10 µM. The IC50 at F1F0-ATPase is under 10 µM.

For the compound `COc1cccc(CN/C(=N/C(=O)c2cccc(OC)c2)Nc2cc(-c3ccc(F)cc3)[nH]n2)c1` [Compound A-394], the EC50 in the assay on Ramos cells was under 10 µM. The IC50 at F1F0-ATPase was under 10 µM. For `CC(C)(N/C(=N/C(=O)c1ccc(Cl)c(F)c1)Nc1cc(-c2cc(F)cc(F)c2)n[nH]1)C(F)(F)F` [Compound A-357], in the assay on Ramos cells, the EC50 was over 10 µM. On the same count and under the same terms, under `COCCOCC(C)(C)N/C(=N/C(=O)c1ccc(F)cc1)Nc1cc(-c2ccc(F)cc2)n[nH]1` [Compound A-507] stands under 10 µM.

Consider `O=C(/N=C(/NCc1cc(F)c(F)c(F)c1)Nc1cc(C(F)(F)F)[nH]n1)c1ccc(F)c(F)c1` [Compound A-39], for which, on F1F0-ATPase, the IC50 was under 10 µM. Consider `COCC(C)(C)NC(=NC(=O)c1cccc(C#N)c1)Nc1cc(-c2ccc(F)cc2)n[nH]1` [Compound A-504], for which the 50% inhibitory concentration (IC50) on F1F0-ATPase was under 10 µM.

On to `CC(C)CN/C(=N/C(=O)c1cccc(C#N)c1)Nc1cc(-c2ccc(F)cc2)n[nH]1` [Compound A-508], for which, in the assay on Ramos cells, the EC50 is under 10 µM.

Consider `CCC(C)N/C(=N/C(=O)c1ccc(Cl)c(F)c1)Nc1cc(-c2cc(F)cc(F)c2)n[nH]1` (stereo not drawn) [Compound A-356], for which the concentration giving a half-maximal response (EC50) in the assay with Ramos cells is under 10 µM.

`CC(C)(C)N/C(=N/C(=O)c1ccc(Cl)c(F)c1)Nc1cc(-c2cc(F)cc(F)c2)n[nH]1` [Compound A-354]: the EC50 in the assay with Ramos cells was under 10 µM. As for `COC(=O)c1cc(N/C(=N\C(=O)c2ccc(C(F)(F)F)cc2)NC(C)(C)C)[nH]n1` [Compound A-339], the EC50 in the assay on Ramos cells is over 10 µM. In the case of `CC1(N/C(=N/C(=O)c2ccc(Cl)c(F)c2)Nc2cc(-c3cc(F)cc(F)c3)n[nH]2)CCCC1` [Compound A-355], the EC50 in the assay on Ramos cells was over 10 µM. Still for that read-out and setting: under `CC1(N/C(=N/C(=O)c2ccc(Cl)c(F)c2)Nc2cc(-c3cc(F)cc(F)c3)n[nH]2)CC1` [Compound A-358] stands under 10 µM.
